{
  "source": "paper PMC2832019",
  "about": "“In Vitro Metabolic and Mitogenic Signaling of Insulin Glargine and Its Metabolites” (PLoS ONE, 2010)",
  "key": {"[1]": {"system": "Saos-2 cells", "test": "Mitogenic potency: thymidine incorporation in Saos-2 cells", "type": "cell-based, human", "conditions": "for EC50: [2-^14C]-thymidine incorporation, 19 h stimulation plus 6 h thymidine, serum-free, 37°C, octuplicate samples, means ± SEM, at least three times; for mitogenicity in words: relative to glargine and human insulin", "protocol": "The human osteosarcoma cell line Saos-2 was obtained in frozen aliquots from the European Collection of Cell Cultures (ECACC, Salesbury, UK). Cells were grown in McCoy's 5a medium (Gibco, Grand Island, NY, USA) supplemented with 10% fetal calf serum (PAN Biotech GmbH, Aidenbach, Germany) and 2 mM (final) L-glutamine (Sigma Aldrich, Irvine, UK). Subconfluent cultures (9-15×10^6 cells per 225 cm^2 flask) were used to determine the mitogenic activity of the test compounds.\nFor measuring thymidine incorporation 40,000 cells were seeded per well of a 96-well Cytostar-T scintillation microplate (GE Healthcare, Amersham, UK) and the plates were incubated overnight at 37°C in a humidified atmosphere containing 5% CO2. The serum-containing medium was removed and replaced by 200 µL serum-free McCoy's 5a medium supplemented with 0.5% (w/v) BSA (Gibco, Grand Island, NY, USA), 2 mM L-glutamine and antibiotics (penicillin 100 units, streptomycin 100 units, amphotericin B 0.25 µg/mL final, Gibco, Grand Island, NY, USA). The plates were incubated for 4 hours at 37°C in a humidified atmosphere containing 5% CO2. 150 µL of the medium were removed and substituted by 150 µL of serum-free medium containing the different insulins or IGF-1 (Cell Sciences, Canton, MA, USA) at the indicated concentrations and the plates were incubated at 37°C in a humidified atmosphere containing 5% CO2. After 19 hours 10 µL of [2-^14C]-thymidine solution ([…], 3.7 MBq/mL) diluted in serum-free McCoy's 5a medium were added per well to yield a final concentration of 500 nCi/mL and the plates were incubated for 6 hours at 37°C in a humidified atmosphere containing 5% CO2. ^14C-thymidine incorporation was measured in a Wallac 1450 Micro Beta Trilux Scintillation counter. Dose-response curves were obtained by testing ten different concentrations of the ligands with every concentration tested by octuplicate samples.\nFor each experiment, IC50 or EC50 values were obtained using the 4-parameter logistic model according to Ratkowsky and Reedy (1986). The adjustment was obtained by non-linear regression using the Levenberg-Marquardt algorithm in SAS v9.1.3 software via Biost@t-Speed V2.0-LTS internal application. If necessary, lower and upper asymptotes were set to 0 and 100, respectively.\nFigure 4 Activity of insulin analogs on the human IGF1R and mitogenic potential in Saos-2 cells. Analysis of binding to the human IGF1R using [^125I]IGF-1 as radioactive ligand (A) and analysis of the insulin-stimulated autophosphorylation of the human IGF1R overexpressed in MEF cells (B) were done as described in figure 2 and Materials and Methods. Data are given as means ± SEM. […] Confluent cells were starved for 4 h and then incubated for 19 h with increasing concentrations of IGF-1, insulin or analog in serum free medium. [^14C]thymidine was added for further 6 h and the radioactivity measured in a Wallac Micro Scintillation counter. Data are given as means ± SEM from octuplicate sample."}, "[2]": {"system": "MCF-7 and SKBR-3 cells", "conditions": "ref [48]; cited from earlier work", "excerpt": "(§1) A correlation between IGF1R autophosphorylation and cell proliferation has been recently assumed by Shukla et al., who observed an enhanced growth of the malignant cell line MCF7 after insulin glargine stimulation. The authors have observed 10% and 50% increases of cellular proliferation at 0.31 and about 15 nmol/L. This effect seemed to be linked to activation of the IGF1R and the MAPK pathway, since siRNA knockdown of IGF1R decreased the response. Unfortunately, no dose-response curve of IGF1R autophosphorylation as well as no proliferation data from siRNA knockdown of IR have ..."}, "[3]": {"system": "MCF10", "conditions": "benign cell line; ref [15]; cited from earlier work", "excerpt": "as §1"}, "[4]": {"system": "MCF7", "conditions": "ref [15], cited from earlier work", "excerpt": "as §1"}, "[5]": {"system": "MCF7 and other tumor cell lines", "conditions": "ref [14]; cited from earlier work", "excerpt": "as §1"}, "[6]": {"conditions": "no reference given, cited from earlier work", "excerpt": "These alterations cause a shift in the isoelectric point from pH 5.4 to 6.7. Following subcutaneous administration as a clear solution of pH 4, insulin gla ..."}, "[7]": {"system": "insulin receptor", "conditions": "cited from earlier work", "excerpt": "Accordingly, a good correlation between the potency in insulin receptor binding, induction of autophosphorylation and stimulation of lipid synthesis has been observed for insulin analogs. […] Taken together ..."}, "[8]": {"system": "MCF-7 cells, HCT-116 (colorectal cancer) and PC-3 (prostate cancer) cells", "conditions": "ref [49]; cited from earlier work", "excerpt": "as §1, with “This effect seemed to be linked to activation of the IGF1R and the MAPK pathway, since siRNA knockdown of IGF1R decreased the response.” left out"}, "[9]": {"conditions": "after injection, healthy subjects and patients with type 1 diabetes; ref [52]–[55]; cited from earlier work", "excerpt": "The therapeutic insulin glargine concentrations reported so far are 80- to 200-fold below the total plasma concentrations of IGF-1. […] Therefore, the concentration of free IGF-1 may be within the range of the plasma concentration of insulin glarg ..."}, "[10]": {"system": "rats", "conditions": "2-year life-time, relative to human insulin, ref [59]; cited from earlier work", "excerpt": "In these studies plasma insulin concentrations were 15 to 25 nmol/L, covering parent compound and active metabolites. In consequence, actual glargine concentrations may be overestimated, the extent of which depends on the degree of proteolytic degradation at both the injection site and the serum. Quantitative assessment of the insulin glargine metabolism in humans is evolving, and will bring further clarification."}, "[11]": {"conditions": "in vivo; cited from earlier work"}, "[12]": {"conditions": "in vivo, sc; cited from earlier work"}, "[13]": {"system": "Saos-2", "design": "method as in PMID 10866053", "conditions": "ref [12]; cited from earlier work"}, "[14]": {"system": "BT474, T47D, ZR75-1, MDA-MB231, HCC1937", "conditions": "ref [15]; cited from earlier work", "excerpt": "as §1"}, "[15]": {"conditions": "relative to human insulin, ref [12]"}},
  "note": "Read-outs that look alike come from different tables or passages of the source.",
  "data": [
    {"substance": "IGF-1: IGF-1 obtained from R&D Systems and Cell Sciences", "values": [
      {"measurement": "EC50", "setting": "[1]", "value": "0.22 ± 0.05", "unit": "nM"}
    ]},
    {"substance": "[Gly^A21,Arg^B31,Arg^B32]insulin [Glargine]", "values": [
      {"measurement": "mitogenic activity", "setting": "[2]", "value": "slightly increased mitogenic activity of insulin glargine without statistical significance"},
      {"measurement": "difference between human insulin and insulin glargine", "setting": "[3]", "value": "did not show any difference"},
      {"measurement": "increase of cellular proliferation", "setting": "[4]; at 0.31 nmol/L", "value": 10, "unit": "%"},
      {"measurement": "increase of cellular proliferation", "setting": "[4]; at about 15 nmol/L", "value": 50, "unit": "%"},
      {"measurement": "mitogenic activity relative to human insulin", "setting": "[5]", "value": "no evidence for an increased mitogenic activity"},
      {"measurement": "EC50", "setting": "[1]", "value": "1.61 ± 0.26", "unit": "nM"},
      {"measurement": "isoelectric point", "setting": "[6]", "value": 6.7, "unit": "pH"},
      {"measurement": "solubility", "setting": "[6]; physiological pH", "value": "low solubility at physiological pH"},
      {"measurement": "dissociation rate", "setting": "[7]; relative to human insulin, ref [12], [51]", "value": "dissociation rate similar to that of human insulin"},
      {"measurement": "insulin receptor binding relative to human insulin", "setting": "[7]; [15]", "value": 86, "unit": "%"},
      {"measurement": "mitogenic potency", "setting": "[8]", "value": "increased mitogenic potency"},
      {"measurement": "peak free serum insulin glargine level", "setting": "[9]", "value": "< 200", "unit": "pmol/L"},
      {"measurement": "tumor-promoting activity", "setting": "[10]", "value": "without evidence of tumor-promoting activity greater than human insulin"}
    ]},
    {"substance": "[Gly^A21,des-Thr^B30]insulin [Glargine M2]", "values": [
      {"measurement": "EC50", "setting": "[1]", "value": "17.9 ± 6.5", "unit": "nM"},
      {"measurement": "mitogenicity in words", "setting": "[1]", "value": "significantly less mitogenic than glargine and comparable to normal insulin"},
      {"measurement": "plasma levels of metabolites", "setting": "[11]", "value": "significant plasma levels"}
    ]},
    {"substance": "[Gly^A21]insulin [Glargine M1]", "values": [
      {"measurement": "EC50", "setting": "[1]", "value": "16.2 ± 2.35", "unit": "nM"},
      {"measurement": "mitogenicity in words", "setting": "[1]", "value": "significantly less mitogenic than glargine and comparable to normal insulin"},
      {"measurement": "plasma levels of metabolites", "setting": "[11]", "value": "significant plasma levels"},
      {"measurement": "insulin receptor binding relative to human insulin", "setting": "[7]; [15]", "value": 78, "unit": "%"}
    ]},
    {"substance": "[Gly^A21,Arg^B31]insulin [Glargine IM]", "values": [
      {"measurement": "EC50", "setting": "[1]", "value": "3.75 ± 0.31", "unit": "nM"},
      {"measurement": "mitogenicity in words", "setting": "[1]", "value": "reduced relative to insulin glargine"},
      {"measurement": "plasma levels of metabolites", "setting": "[11]", "value": "minor species only"},
      {"measurement": "amount of metabolite", "setting": "[12]", "value": "only in minor quantities"}
    ]},
    {"substance": "[Asp^B10]insulin", "values": [
      {"measurement": "proliferation rate of Saos-2", "setting": "[13]", "value": "higher proliferation rate"},
      {"measurement": "EC50", "setting": "[1]", "value": "1.52 ± 0.15", "unit": "nM"},
      {"measurement": "affinity towards IR and IGF1R", "setting": "[7]; IR and IGF1R, relative to human insulin, ref [12]", "value": "higher affinity towards both IR and IGF1R"},
      {"measurement": "occupancy time for the IR", "setting": "[7]; ref [12]", "value": "prolonged occupancy time"},
      {"measurement": "occupancy of receptor", "setting": "[7]; ref [50]", "value": "prolonged occupancy"}
    ]},
    {"substance": "Human insulin: human insulin produced by recombinant DNA techniques or enzymatic semisynthesis", "values": [
      {"measurement": "response of cell lines to human insulin", "setting": "[14]", "value": "did not respond"},
      {"measurement": "difference between human insulin and insulin glargine", "setting": "[3]", "value": "did not show any difference"},
      {"measurement": "EC50", "setting": "[1]", "value": "12.2 ± 0.27", "unit": "nM"},
      {"measurement": "isoelectric point", "setting": "[6]", "value": 5.4, "unit": "pH"}
    ]}
  ]
}
